In publication PMC3679007 (PLoS ONE, 2013):
Several values for one entry are separate records, joined by “and”; a condition that tells them apart may be missing. Equal entries are not always repeated. Where two headings read alike, the source gives them in different places.

Experiments:
[1] = target: clade 1 isolates from Viet Nam and Cambodia (neuraminidase); conditions: cited from earlier work
[2] = target: clade 1.1 HPAI H5N1 isolates from Thailand (neuraminidase) (Influenza A virus, UniProt Q5SDA6); type: biochemical, HPAI H5N1 avian influenza virus; conditions: read-out: IC50, Mean (SD)
[3] = target: A/chicken/Cambodia/CMB07.71LC1/2007 neuraminidase (Influenza A virus, UniProt E1B5P8); type: biochemical, HPAI H5N1 avian influenza virus
[4] = target: clade 2.1 HPAI H5N1 isolates from Indonesia (neuraminidase) (Influenza A virus, UniProt F5HQR3); type: biochemical, HPAI H5N1 avian influenza virus
[5] = in vivo; cited from earlier work
[6] = tested on: clade 2.1 viruses circulating in Indonesia (neuraminidase); conditions: cited from earlier work
[7] = target: A/chicken/Cambodia/CMB07.71LC4/2007 neuraminidase (Influenza A virus (A/chicken/Cambodia/CMB07.71LC4/2007(H5N1)), UniProt E1B5P8); type: biochemical, HPAI H5N1 avian influenza virus
[8] = target: A/duck/Cambodia/CMB07.72/2007 neuraminidase (Influenza A virus, UniProt E1B5P8); type: biochemical, HPAI H5N1 avian influenza virus
[9] = target: A/chicken/Bangli/BBVD-563/2007 neuraminidase (clade 2.1 wild type) (Influenza A virus, UniProt F1SW80); type: biochemical, HPAI H5N1 avian influenza virus
[10] = target: A/chicken/Suphanburi/2509/2004 neuraminidase (Influenza A virus (H5N1), UniProt Q5SDA6); type: biochemical, HPAI H5N1 avian influenza virus
[11] = tested on: A/chicken/Bangli/BBVD-562/2007, A/chicken/West Java Tangerang/PTB6/2008, A/chicken/West Java/Tja-31/2008, A/chicken/Payakumbuh/BPPVRII-307/2007 neuraminidases; type: biochemical
[12] = target: A/chicken/Cambodia/CMB07.71LC3/2007 neuraminidase (Influenza A virus (A/chicken/Cambodia/CMB07.71LC3/2007(H5N1)), UniProt E1B5P8); type: biochemical, HPAI H5N1 avian influenza virus
[13] = target: A/chicken/Cambodia/CMB07.71LC2/2007 neuraminidase (Influenza A virus, UniProt E1B5P8); type: biochemical, HPAI H5N1 avian influenza virus
[14] = target: A/chicken/Wates/126/2005 neuraminidase (clade 2.1 reference) (Influenza A virus (H5N1), UniProt Q1W1F4); type: biochemical, HPAI H5N1 avian influenza virus; conditions: read-out: IC50, Mean (SD)
[15] = target: A/chicken/Saraburi/10713/2005 neuraminidase (Influenza A virus (A/chicken/Saraburi/10713/2005(H5N1)), UniProt Q2LDC8); type: biochemical, HPAI H5N1 avian influenza virus
[16] = target: A/chicken/Vietnam/08/2004 neuraminidase (clade 1.1 wild type) (Influenza A virus (H5N1), UniProt Q6DPL2); type: biochemical, HPAI H5N1 avian influenza virus
[17] = read-out: 60 min IC50, Preincubation step (+)
[18] = read-out: 60 min IC50, Preincubation step (−)

CCOC(=O)C1=C[C@@H](OC(CC)CC)[C@H](NC(C)=O)[C@@H](N)C1 [Oseltamivir, oseltamivir]
IC50 [1]: 0.0005 µM | IC50 [2]: 0.00097 µM | IC50 [3]: 0.00077 µM | IC50 ([4]; read-out: Extreme High Outliers, IC50 cut-off): > 0.0637 µM | IC50 ([4]; read-out: IC50, IQR (25th-75th percentile)): 0.0212 to 0.0282 µM and 0.0204 to 0.0264 µM | IC50 ([4]; read-out: IC50, Median): 0.0249 µM and 0.0244 µM | IC50 ([4]; read-out: IC50, range): 0.0106 to 0.349 µM and 0.0126 to 0.0624 µM | IC50 ([4]; read-out: IC50s of extreme outliers): 0.063 to 0.35 µM | IC50 ([4]; read-out: IC50s of many of the outliers): > 0.05 µM | IC50 ([4]; read-out: Mean and median IC50): ~0.025 µM | IC50 ([4]; read-out: Median IC50): 0.025 µM | IC50 ([4]; read-out: Mild High Outliers, IC50 cut-off): > 0.0424 µM | Levels in plasma [5]: 400 to 1200 nM | Levels in saliva [5]: less than 5 % of plasma levels | IC50 [6]: 0.011 µM and 0.0115 µM | IC50 [7]: 0.00075 µM | IC50 [8]: 0.00065 µM | Binding kinetics (in words) [9]: partial loss of slow binding, and faster dissociation | IC50 [9, 17]: 0.0196 µM | IC50 [9, 18]: 0.0214 µM | IC50 [10]: 0.00061 µM | Binding kinetics (in words) [11]: no longer slow binding | IC50 [12]: 0.00051 µM | IC50 [13]: 0.00078 µM | IC50 [14]: 0.0159 µM and 0.0198 µM | IC50 [15]: 0.00068 µM

CCC(CC)[C@H](NC(C)=O)[C@@H]1[C@H](O)[C@@H](C(=O)O)C[C@H]1N=C(N)N [Peramivir, peramivir]
Ratio (−)/(+) of 60 min IC50s [16]: 8.9 | IC50 [16, 17]: 0.0007 µM | IC50 [16, 18]: 0.0062 µM | Ratio (−)/(+) of 60 min IC50s [9]: 9 | IC50 [9, 17]: 0.0006 µM | IC50 [9, 18]: 0.0054 µM | Binding kinetics (in words) [11]: None of these viruses demonstrated loss of slow binding

CC(=O)N[C@H]1[C@H]([C@H](O)[C@H](O)CO)OC(C(=O)O)=C[C@@H]1N=C(N)N [Zanamivir, zanamivir]
Extreme High Outliers, number of viruses [4]: 0 (>7.2) and 0 (>5.6) | Binding kinetics (in words) [11]: None of these viruses demonstrated loss of slow binding
